Consider five compounds from paper PMC11402846, “Does a postmortem redistribution affect the concentrations of the 7 azaindole-derived synthetic cannabinoid 5F-MDMB-P7AICA in tissues and body fluids following pulmonary administration to pigs?” (Archives of Toxicology, 2024).

The conditions of data set [1]: death case, cited from earlier work; for central blood (CB) levels versus peripheral blood (PB) levels: PMI: 20 h, ref Zaitsu et al. ([2015]).
Data set [2] can be described thus: Perimortem and postmortem concentrations in tissues and body fluids after pulmonary administration of 5F-MDMB-P7AICA to pigs (LC-MS/MS). In kind it is in vivo. The settings on record: pig. As to the method: The experiments were conducted in compliance with the German legislation on protection of animals and the National Institutes of Health Guide for the Care and Use of Laboratory Animals (permission number 32/2018). Six domestic male pigs (Swabian Hall strain; body weight [BW] 40–51.2 kg, 3 months old) were kept with free access to water and standard daily food (OlymPig fattening feed, Raiffeisen, Münster, Germany). One night prior to the experiments, the animals were kept fasting. […] The room temperature was 22 ± 1 °C with a humidity of 55 ± 10%.
As previously described (Doerr et al. [2020]; Schaefer et al. [2019], [2020a]), an ethanolic solution of 5 mg/mL 5F-MDMB-P7AICA was prepared. An aliquot of 1.600–2.048 mL was filled up with ethanol to a total volume of 2 mL, if needed to achieve a concentration of 200 µg per kg BW. The SC was administered inhalatively over 6.5–8 min, using a M-Neb flow + ventilation ultrasonic nebulizer MN-300/7 (Nebutec, Elsenfeld, Germany) in the inspiration-triggered mode.
Animal euthanasia was conducted eight hours after the drug administration using T 61 (embutramide, 0.12 mL/kg BW, Intervet Deutschland GmbH, Unterschleißheim, Germany). Afterwards, the abdominal cavity was opened. Samples of the following organs, tissues and body fluids were collected (PMI 0) and stored at − 20 °C until further analysis: Brain (cerebrum), lungs and liver with no differentiation between the lobes, kidneys, muscle tissue (from the hindleg), adipose tissue (subcutaneous (sc), dorsal, perirenal), bile fluid, duodenum content, urine (only at PMI 0) and PB (V. jugularis) as well as CB.
The abdominal cavity was sutured leaving the organs in situ and the animal bodies were kept at room temperature in a supine position. Analogously, samples were taken again after 24, 48 and 72 h (PMI 1–3), respectively. Yet, PM PB specimens were obtained by sampling the coagulated blood from the V. femoralis or V. brachialis. For this purpose, the whole vessel was sampled and the blood was drawn therefrom using a pipette with a wide lumen.
Specimens were prepared according to a previous published method (Schaefer et al. [2017], [2019], [2020a]) with changes regarding the applied buffers and the amount of acetonitrile. An amount of 2 g of solid tissue (brain, lung, liver, kidney and muscle tissue) was homogenized (1:5 w/w with water), respectively and 1 g of body fluids (bile fluid, duodenum content, and urine) was diluted (1:10 w/w for bile and duodenum content, 1:5 w/w for urine, respectively, with water). The samples were stored at − 20 °C.
To determine the standard addition calibration curves, four 0.5 g aliquots were added to 20 µL of an ethanolic stable-isotope-labeled internal standard solution (SIL-IS, 1 ng/20 µL AB-FUBINACA-d4) and 25 µL of ethanol or an ethanolic solution of the analytes.
Subsequently, the solution was mixed with 500 µL of acetate buffer and 50 µL of β-glucuronidase/arylsulfatase and incubated for 2 h at 60 °C to induce enzymatic hydrolysis of the glucuronidated DBA (phase-II metabolite).
For the following protein precipitation, the samples were mixed with 500 µL of acetonitrile and centrifuged at 3500g for 8 min. The supernatants were transferred to 1 mL phosphate buffer (pH 9) vortexed and centrifuged at 3500g for 8 min again.
Solid phase extraction (SPE) was carried out using Strata C18 end capped cartridges (Phenomenex, Aschaffenburg, Germany), previously conditioned with 2 × 3 mL methanol and 3 mL phosphate buffer. After loading the samples, the columns were washed with 3 mL phosphate buffer, 3 mL acetic acid (0.25 M) and 3 mL deionized water, respectively. 60 μL acetone was added and columns were dried for 5 min using negative pressure (about 33 kPa). Thereafter, the analytes were eluted with a mixture of 1.5 mL methanol-acetone (1:1, v/v) and the eluate was evaporated under a gentle stream of nitrogen at 60 °C. […]

Details of data set [3]: method as in Walle et al. [2023]. The settings on record: authentic fatal case, comparable survival time after drug intake; ref Walle et al. [2023]; cited from earlier work.
[4] abbreviates: 200 µg/kg BW inhalative, PMI 0 (8 h after administration).
The mark [5] stands for this setting: 200 µg/kg BW inhalative, PMI 1 (24 h after euthanasia, room temperature).
The mark [6] stands for this setting: 200 µg/kg BW inhalative, PMI 2 (48 h after euthanasia, room temperature).
Where [7] appears, read: 200 µg/kg BW inhalative, PMI 3 (72 h after euthanasia, room temperature).

Take `CN1CCCCC1Cn1cc(C(=O)c2cccc3ccccc23)c2ccccc21` (stereo not drawn) [AM-1220]: in data set [1], the “central blood (CB) levels versus peripheral blood (PB) levels” value is given as “significantly exceeded”.

Take `N#CCCCCn1cc(C(=O)c2cccc3ccccc23)c2ccccc21` [AM-2232]: in data set [1], the “central blood (CB) levels versus peripheral blood (PB) levels” value is “significantly exceeded”.

For `CC(C)(C)C(NC(=O)c1cn(CCCCCF)c2ncccc12)C(=O)O` (stereo not drawn) [DBA, 5F-MDMB-P7AICA-dimethylbutanoic acid], in data set [2] (setting [4]), the “Mean concentration ± SD in CB (central blood)” value (shortened to “Mean concentration ± SD in CB”) worked out at 0.22 ± 0.11 n = 6 ng/mL; the “Mean concentration ± SD in bile fluid” value is 57 ± 100 n = 6 ng/g; the “Mean concentration ± SD in brain” value was “tested negative and neg”; the “Mean concentration ± SD in dorsal fat” value is 0.60 ± 0.35 n = 6 ng/g. Also, in data set [2] (setting [4]), the “Mean concentration ± SD in duodenum content” value is given as 82 ± 72 n = 6 ng/g, the “Mean concentration ± SD in kidney” value is given as 5.4 ± 4.7 n = 6 ng/g, the “Mean concentration ± SD in liver” value is listed as 0.87 ± 0.37 n = 6 ng/g and the “Mean concentration ± SD in lung” value is on record as 0.20 ± 0.071 n = 4 ng/g. Also, in data set [2] (setting [4]), the “Mean concentration ± SD in muscle” value turned out to be 0.14 ± 0.011 n = 3 ng/g, the “Mean concentration ± SD in perirenal fat” value is given as 8.8 ± 5.6 n = 6 ng/g, the “Mean concentration ± SD in s.c. fat” value is reported as 1.1 ± 1.1 n = 6 ng/g and the “Mean concentration ± SD in urine” value is 78 ± 45 n = 6 ng/g. In data set [2] (setting [5]), the “Mean concentration ± SD in CB” value came out at 0.32 ± 0.40 n = 5 ng/mL, the “Mean concentration ± SD in PB (peripheral blood)” value (from here on “Mean concentration ± SD in PB”) stood at 0.47 ± 0.21 n = 6 ng/mL, the “Mean concentration ± SD in bile fluid” value is given as 37 ± 71 n = 6 ng/g and the “Mean concentration ± SD in brain” value is on record as 0.13 ± 0.056 n = 6 ng/g. Besides, in data set [2] (setting [5]), the “Mean concentration ± SD in dorsal fat” value amounted to 0.28 ± 0.19 n = 6 ng/g, the “Mean concentration ± SD in duodenum content” value is reported as 13 ± 15 n = 6 ng/g, the “Mean concentration ± SD in kidney” value is 5.1 ± 5.0 n = 6 ng/g and the “Mean concentration ± SD in liver” value came out at 1.2 ± 1.4 n = 6 ng/g. For the same compound, in data set [2] (setting [5]), the “Mean concentration ± SD in lung” value is given as 0.33 ± 0.21 n = 5 ng/g, the “Mean concentration ± SD in muscle” value is recorded as 0.10 ± 0.027 n = 6 ng/g, the “Mean concentration ± SD in perirenal fat” value stood at 1.0 ± 1.2 n = 5 ng/g and the “Mean concentration ± SD in s.c. fat” value is given as 0.45 ± 0.46 n = 5 ng/g. In data set [2] (setting [6]), the “Mean concentration ± SD in CB” value worked out at 0.21 ± 0.17 n = 5 ng/mL, the “Mean concentration ± SD in PB” value is 0.48 ± 0.16 n = 6 ng/mL, the “Mean concentration ± SD in brain” value amounted to 0.18 ± 0.065 n = 6 ng/g and the “Mean concentration ± SD in dorsal fat” value is 0.16 ± 0.064 n = 4 ng/g. For the same compound, in data set [2] (setting [6]), the “Mean concentration ± SD in kidney” value was found to be 7.0 ± 5.9 n = 6 ng/g, the “Mean concentration ± SD in liver” value was determined as 1.8 ± 1.2 n = 6 ng/g, the “Mean concentration ± SD in lung” value is 0.92 ± 0.69 n = 6 ng/g and the “Mean concentration ± SD in muscle” value is given as 0.11 ± 0.047 n = 5 ng/g. In addition, in data set [2] (setting [6]), the “Mean concentration ± SD in perirenal fat” value stood at 2.0 ± 1.7 n = 6 ng/g and the “Mean concentration ± SD in s.c. fat” value came out at 0.18 ± 0.086 n = 5 ng/g. Also, in data set [2] (setting [7]), the “Mean concentration ± SD in CB” value was 0.20 ± 0.10 n = 5 ng/mL, the “Mean concentration ± SD in PB” value was 0.28 ± 0.093 n = 6 ng/mL, the “Mean concentration ± SD in brain” value is 0.16 ± 0.043 n = 6 ng/g and the “Mean concentration ± SD in dorsal fat” value is listed as 0.11 ± 0.033 n = 5 ng/g. For the same compound, in data set [2] (setting [7]), the “Mean concentration ± SD in duodenum content” value amounted to 9.0 ± 17 n = 6 ng/g, the “Mean concentration ± SD in kidney” value was determined as 6.5 ± 5.9 n = 6 ng/g, the “Mean concentration ± SD in liver” value came out at 2.8 ± 1.9 n = 6 ng/g and the “Mean concentration ± SD in lung” value is given as 0.89 ± 0.57 n = 5 ng/g. In addition, in data set [2] (setting [7]), the “Mean concentration ± SD in muscle” value was found to be 0.17 ± 0.089 n = 6 ng/g, the “Mean concentration ± SD in perirenal fat” value was 4.6 ± 3.7 n = 6 ng/g and the “Mean concentration ± SD in s.c. fat” value stood at 0.27 ± 0.17 n = 5 ng/g. Besides, the “Concentration in bile fluid” value in data set [2] (200 µg/kg BW inhalative, PMI 3 (72 h after euthanasia, room temperature), only sampled from 2 pigs) is 7.5–120 n = 2^2 ng/g. In data set [2] (5F-MDMB-P7AICA 200 µg/kg BW inhalative, PMI 0 (8 h after administration)), the “Mean concentration ± SD in PB” value is on record as 0.18 ± 0.11 n = 6 ng/mL. Further, the “Postmortem redistribution (PMR)” value in data set [2] (3 days storage at room temperature) is recorded as “no relevant PMR was observed”. Also, the “Amount in the remaining tissues” value in data set [2] (PMI 0, tissues other than urine, bile fluid, duodenum content, kidney, perirenal fat) is on record as “less than 1 ng/g”. In addition, the “Concentration change in bile and duodenum” value in data set [2] (PMI 2 compared to PMI 0, p < 0.05) is “decrease was statistically significant”. Also, the “Concentration change in dorsal and subcutaneous fat specimens” value in data set [2] (over the PMI) is on record as “significant lower concentrations over time”. Also, in data set [3], the “CB concentration in fatal case” value is given as 46 ng/mL and the “PB concentration in fatal case” value is 5.7 ng/mL.

Take `Cc1ccc(C(=O)c2cn(CCCCCF)c3ccccc23)c2ccccc12` [MAM-2201]: the “central blood (CB) levels versus peripheral blood (PB) levels” value in data set [1] was “significantly exceeded”.

For `COC(=O)[C@@H](NC(=O)c1cn(CC2CCCCC2)c2ccccc12)C(C)(C)C` [MDMB-CHMICA], the “quotient of central/peripheral blood (C/P ratio)” value in data set [1] (12 h after death, ref Gaunitz et al. [2018]) is recorded as roughly 1.
